Patent US5153352A, “Process for preparation of intermediates of carbocyclic nucleoside analogs” (priority 1990, dated 1992)
Converted amounts (≈) assume the structure as drawn. “And” between values parts separate entries of the source, which are not always exact repeats. Equal values may be shown once.

Legend:
[1] = tested on: Human Immunodeficiency Virus (HIV); assay: HIV CPE inhibition assay in ATH8 cells; assay type: cell-based
Experimental: (§1) The ATH8 human T-cell line expresses high levels of the CD4 surface antigen and is quite sensitive to the cytopathogenic effect (CPE) of HIV. The cells were propagated in RPMI 1640 medium supplemented with 4mM glutamine, 15% heat-inactivated fetal bovine serum (Biocell), antibiotics (50 units of penicillin and […] of streptomycin per ml), and 50 units of recombinant-derived human interleukin-2 (ala-125; AMGen Biologicals) per ml.
The clone H9 cell line is another CD4^+ human T-cell line which is permissive for HIV replication but largely resistant to virus induced CPE. H9 cells productively infected with the HTLV IIIB strain of HIV served as the source of infectious virus. These cells were propagated in RPMI 1640 medium supplemented with glutamine and antibiotics as described above, and with 20% heat-inactivated fetal bovine serum. Freshly harvested, undiluted culture supernatant from the H9/HTLV-IIIB producer cells was used for infectious virus inoculum.
The screening of compounds for antiviral activity was performed using a modification of the CPE inhibition assay originally developed by Broder and co workers. This assay is based on the ability of uninfected ATH8 cells to grow and form a pellet at the bottom of a culture tube. Starting about 4 days after HIV addition, infected ATH8 cells begin to die and the pellet starts to break up. By day 10 a clear differential is observable in the size of the cell pellet in uninfected control wells versus infected control wells. The protective effect of test compounds can be assessed by adding them at varying concentrations to the cultured cells at the time of virus infection, then monitoring the status of the cell pellet.
(§2) ATH8 cells were used as the primary target in the HIV induced CPE inhibition assay. Cells were treated with polybrene (2 ug/ml in growth medium) for 30 minutes at 37° C., then collected by gentle centrifugation (40×g for 15 minutes at room temperature) and resuspended in clarified (8000×g for 15 minutes at 4° C.) supernate freshly harvested from 48 hours post passage H9/HTL IIIB cells. Following a 60-minute adsorption period at 37° C., the cells were dispensed into the U-bottom wells of 96-well trays (1×10^4 cells in 0.1 ml per well). An equal volume (0.1 ml) of supplemented RPMI 1640 medium containing test compound and twice the normal concentration of interleukin-2 was then added to each well. Test compounds were evaluated at seven half-log dilutions ranging from 100 uq/ml to 0.1 uq/ml. […]
(§3) Between 7 and 10 days post infection, all wells were visually monitored for the degree of CPE inhibition as reflected by cell pellet size, and aliquots were taken from selected wells for determination of cell number and viability (based on trypan blue dye exclusion).

[2] = compound cytotoxicity in ATH8 cells (HIV CPE inhibition assay); assay type: cell-based; details: human, read-out: MTC
Experimental: as §1
as §2, with “An equal volume (0.1 ml) of supplemented RPMI 1640 medium containing test compound and twice the normal concentration of interleukin-2 was then added to each well.” left out
as §3

[3] = tested on: Herpes simplex type 2 (HSV-2) strain MS; assay: CPE-inhibition assay, HSV-2 strain MS in Vero cells
[4] = tested on: Herpes simplex type 1 (HSV-1) strain E-377; assay: CPE-inhibition assay, HSV-1 strain E-377 in Vero cells
[5] = drug cytotoxicity in Vero cells (CPE-inhibition assay); details: monkey, vero cells, MTC (minimum drug concentration causing any cytotoxicity), Vero
Vero cells = assay: as above; details: Vero
[6] = tested on: Human Cytomegalovirus (HCMV); assay: HCMV virus yield reduction assay in MRC5 cells; assay type: cell-based, Human cytomegalovirus (strain AD169)
Experimental: (§4) Human diploid embryonic lung (MRC5) cells were grown in 35 mm wells of 6-well tissue culture plates. Subconfluent cell monolayers were rinsed with phosphate buffered saline (PBS) and were exposed to 0.5 ml/well of HCMV (strain AD169) suspension for 1.5 hours at 37° C. The virus suspension was diluted in MEM+2% fetal bovine serum (FBS) to yield a multiplicity of infection (MOI) of approximately 0.1 plaque forming units (PFU)/cell. Following the virus adsorption period, the inocula were removed and infected cell layers were rinsed with PBS. Aliquots (2.0 ml) of each test drug concentration (dissolved in MEM supplemented with 2% FBS) were dispensed into triplicate cell cultures: two virus infected cultures and one uninfected cytotoxicity control culture (exposed to medium without virus for 1.5 hours). Untreated virus infected control cultures and untreated, uninfected cell control cultures were fed with medium alone.
(§5) All cell culture fluids were replaced with fresh drug and medium 48 hours postinfection (p.i.).
On Day 6 p.i., the cell layers were examined microscopically for cytopathogenic effect (CPE) and drug cytotoxicity. The test and virus control cultures were then harvested by subjecting the cell layers to one cycle of freeze-thawing.
The harvested test and virus control samples were thawed and the infectious virus yield was determined by plaque assay in MRC5 cells grown in 12-well cluster plates. Inhibition of HCMV replication by each test compound was determined by comparing the progeny virus yields in the drug-treated cultures with the progeny virus yield in the untreated, virus infected control cultures.

[7] = MTT cytotoxicity assay in MRC5 cells; assay type: cell-based; details: human
Experimental: as §4, §5
Drug cytotoxicity was determined quantitatively by a method based on the reduction of the tetrazolium salt, 3-(4,5-dimethyl-thiazol-2-yl)-2,5-diphenyl tetrazolium bromide (MTT) by mitochondrial enzymes of viable host cells to MTT formazan (T. Mosmann, 1983). Drug cytotoxicity controls and cell controls were treated with MTT (dissolved in culture medium) followed by 20% SDS (in 0.02 N HCl) to dissolve the crystals of MTT formazan. The blue color of the MTT formazan was measured spectrophotometrically at 570 nm. Drug cytotoxicity was determined by comparing the absorbance (O.D.) of each drug cytotoxicity control with the mean O.D. of the cell control cultures and expressed as percent of control.

A549: Lung carcinoma = assay: cytotoxic activity against cultured tumor cells, A549; assay type: cell-based; details: Homo sapiens, 72 h; A549, 3 days, MTT
[8] = tested on: HCT8: Adenocarcinoma, ileocecal; assay: cytotoxic activity against cultured tumor cells, HCT-8; assay type: cell-based; details: Homo sapiens, 72 h; HCT-8, 3 days, MTT
[9] = tested on: P388D1: Lymphocytic Leukemia; assay: cytotoxic activity against cultured tumor cells, P388-D1; assay type: cell-based; details: Mus musculus, P388D1, 72 h; P388-D1, 3 days, MTT
HSV-1(E-377) = assay: plaque reduction, HSV-1(E-377) in Vero cells; assay type: cell-based, Herpes simplex virus type 1; details: Human alphaherpesvirus 1, plaque reduction 50%, read-out: MIC50
Experimental: (§6) After the adsorption period, the infected cell monolayers were treated in duplicate with serial dilutions of the test compound. Duplicate cell controls containing medium alone and virus controls containing medium and virus were run simultaneously with the test compound. […] Plaques visible to the unaided eye were counted and the mean number of plaques in the duplicate wells for each compound concentration tested and for the untreated, virus infected controls were determined.

HSV-1(123) = assay: plaque reduction, HSV-1(123) in Vero cells; assay type: cell-based, Herpes simplex virus type 1; details: Human alphaherpesvirus 1, plaque reduction 50%, read-out: MIC50
Experimental: as §6

HSV-2 = assay: plaque reduction, HSV-2 in Vero cells; assay type: cell-based, Herpes simplex virus type 2; details: Human alphaherpesvirus 2; HSV-2, Vero, plaque reduction 50%; read-out: MIC50
Experimental: as §6

With OCC1CC(n2cnc3c(Cl)ncnc32)C1CO (stereo not drawn) [Example 4B, 3-(6'-chloro-9'H-purin-9'-yl)-1,2-bis(hydroxymethyl)cyclobutane] the VR [1] was 1.1 and the MCC [2] was 10 µg/mL.

In the case of Nc1nc(Cl)c2ncn(C3CC(CO)C3CO)c2n1 (stereo not drawn) [Example 1H, 3-(2'-Amino-6'-chloro-9'H-purin-9'-yl)-1,2-bis(hydroxymethyl)cyclobutane], the “TI (Therapeutic Index, MTC/ID50)” value ([3]; HSV-2 (MS), Vero, listed as 1.5H) is reported as 1.8 and 1.5, the EC50 ([3]; Human alphaherpesvirus 2, Vero, read-out: ID50 (minimum drug concentration that inhibited the CPE by 50%), HSV-2 (MS), Vero) is reported as 179 µg/mL (≈ 631 µM) and the “TI (Therapeutic Index, MTC/ID50)” value ([4]; HSV-1 (E-377), Vero, listed as 1.5H) is reported as 3.9 and 3.6. For the same compound, the EC50 ([4]; Human alphaherpesvirus 1, Vero, read-out: ID50 (minimum drug concentration that inhibited the CPE by 50%), HSV-1 (E-377), Vero) was 83 µg/mL (≈ 293 µM), the MCC ([5]; HSV-1 (E-377) experiment) was 320 µg/mL and the MCC ([5]; HSV-2 (MS) experiment) was 320 µg/mL. The “MTC (minimum drug concentration causing any cytotoxicity)” value (Vero cells; HSV-1 (E-377) experiment) was 320 µg/mL and the “MTC (minimum drug concentration causing any cytotoxicity)” value (Vero cells; HSV-2 (MS) experiment) was 320 µg/mL.

Compound OCC1CC(n2ccc3c(Cl)ncnc32)C1CO (stereo not drawn) [Example 67B, 4-Chloro-7-(2',3'-bis(hydroxymethyl)cyclobutyl)-7H-pyrrolo[2,3-d]pyrimidine] has an HCMV yield ([6]; 3.2 ug/ml) of 4.9 log10 PFU/ml, an HCMV yield ([6]; 10 ug/ml) of 4.0 log10 PFU/ml and an HCMV yield ([6]; 32 ug/ml) of 3.1 log10 PFU/ml. The log reduction at 3.2 µg/mL ([6]; Human betaherpesvirus 5, 144 h, 3.2 ug/ml) was 0.4, the log reduction at 10 µg/mL ([6]; Human betaherpesvirus 5, 144 h, 10 ug/ml) was 1.3 and the log reduction at 32 µg/mL ([6]; Human betaherpesvirus 5, 144 h, 32 ug/ml) was 2.2. For the same compound, the viability ([7]; 10 ug/ml) was 86%, the viability ([7]; 32 ug/ml) was 68% and the IC50 (A549: Lung carcinoma) was 18.8 µg/mL (≈ 70.2 µM). For the same compound, the IC50 [8] was 0.63 µg/mL (≈ 2.35 µM) and the IC50 [9] was 4.9 µg/mL (≈ 18.3 µM).

With Nc1nc2c(ncn2C2CC(CO)C2O)c(=O)[nH]1 (stereo not drawn) [Example 42P, 9-(2'-hydroxy-3'-hydroxymethyl-1'-cyclobutyl)guanine] the EC50 (HSV-1(E-377)) was 1 µg/mL (≈ 3.98 µM), the EC50 (HSV-1(123)) was 3 µg/mL (≈ 11.9 µM) and the EC50 (HSV-2) was 1 µg/mL (≈ 3.98 µM).
